The values that follow come from publication PMC10401713, “Silver(I)-Catalyzed Synthesis of Cuneanes from Cubanes and their Investigation as Isosteres” (Journal of the American Chemical Society, 2023).

Data set [1] in a line: Aqueous solubility (CheqSol method, Sirius T3). The data set is classed as physicochemical. The settings on record: for solubility: water, aqueous buffer, thermodynamic from solid. As to the method:
(§1) 6. Physicochemical Measurements
The logP, pKa in H2O, and aqueous solubility were performed on a Sirius T3 instrument (Pion). The device consists of a pH-meter electrode, a robot that prepares the solutions needed to perform the measurements, and a UV-vis spectrophotometer. Basic titration is performed with a 0.5 M KOH buffer. Acidic titration is performed with a 0.5 M HCl buffer. […]
(§2) (1 picture or pasted object on this page, not shown here)
Solubility measurements were performed using the CheqSol method developed by Pion.22 Because in most cases, compounds are more soluble at pH values where they ionized, the analyte was solubilized in acidic water before pH-titration was performed, measuring the UV-vis spectrum after each addition. The precipitation point was detected from the reduction of the light transmission during UV-vis measurement, or manually when not obvious. The pH-titration was repeated several times around the precipitation point to determine the solubility value by averaging. […]
aqueous solubility (mM) –a […]

The nature of data set [2]: logP measurement (Sirius T3, potentiometric shake-flask method, n-octanol/water). Particulars: n-octanol and water. The data set is classed as physicochemical. As to the method:
as §1
(§3) The logP, pKa in H2O, and aqueous solubility were performed on a Sirius T3 instrument (Pion). The device consists of a pH-meter electrode, a robot that prepares the solutions needed to perform the measurements, and a UV-vis spectrophotometer. Basic titration is performed with a 0.5 M KOH buffer. Acidic titration is performed with a 0.5 M HCl buffer.
(§4) Log P was determined potentiometrically by using the "Shake flask" method, which consists of dissolving part of the solute in question in a volume of n-octanol and water, then performing pH […]
(§5) To obtain the pKa values, a pH-metric titration experiment was carried out. It can measure pKa values between 2 and 12. An acidic or base titrant was added to reach a starting pH at which the sample is ionized. Then, small volumes of 0.5 M HCl or KOH titrant were added and the pH was measured after each addition. Potentiometric measurement of basic compounds were done from pH 2 to pH 12 by adding 0.5 M KOH solution. Potentiometric measurement of acid ic compounds (20, S1, and 14) were done from pH 12 to pH 2 by adding 0.5 M HCl solution. Measurement points were done every 0.2 pH value. After each addition, the sample was stirred for 60 seconds and the pH value was then collected. The titration experiments were done 3 times and the stated values are averages of the 3 […]
as §2

Data set [3] can be described thus: pKa in H2O by pH-metric titration (Sirius T3). The data set is classed as physicochemical. The settings on record: water, average of 3 measurements. As to the method:
as §1, §3, §4, §5, §2

Data set [4] in a line: Mouse liver microsome stability. The data set is classed as in vitro ADME. The settings on record: CD1, mouse, liver microsomes, pH 7.4, 1 µM compound, 0.5 mg/mL protein, NADPH, 37 °C. As to the method: (§6) 7. Microsome Stability Measurements for the Cuneane Analog of Sonidegib Microsome stability measurements were performed by Sygnature Discovery (Nottingham, United […]
(§7) The microsomal stability of a test compound is assessed by spiking compound into tissue microsomes containing NADPH in buffer and sampling for up t o 1 h at 37 °C. Following protein precipitation and centrifugation, the samples are analy zed by UPLC-MS-MS.
(§8) To assess the metabolic stability of a test compound in tissue microsomes.
(§9) • Compound identifier and molecular formula
(§10) • 20 µL of 1 mM test compound in DMSO or 1 mg solid
(§11) Dilutions of a 1 mM test compound DMSO stock solution are prepared in 0.01 M phosphate buffered saline (pH7.4)) so that the final DMSO concentration is 0.1% and the final test compound concentration tested is 1 µM. Following addition of protein (0.5 mg/mL final) and NADPH, the samples are pre-incubated for 10 min prior to the start of the incubation by the addition of […]. The test compound will be incubated (n = 2; 1 µM final concentration) at 37 °C with tissue microsomes. […]
(§12) All the samples will be mixed, centrifuged and the supernatants analysed by UPLC-MS-MS.
(§13) The intrinsic clearance (Clint) and half-life (t1/2) values will be determined from the slope of the parent depletion curve. […]

The nature of data set [5]: Human liver microsome stability. Particulars: liver microsomes, pH 7.4, 1 µM compound, 0.5 mg/mL protein, NADPH, 37 °C. The data set is classed as in vitro ADME. As to the method:
as §6, §7, §8, §9, §10, §11, §12, §13
(Microsomes from liver hold many membrane-bound enzymes, among them those of drug oxidation.)

On the set-up of data set [6]: method as in PMID 36763965. The settings on record: literature value; ref [8b]; cited from earlier work.
On the set-up of data set [7]: method as in doi:10.1021/ja983441f. The settings on record: literature value; ref ([32]); cited from earlier work.
Details of data set [8]: method as in PMID 36763965. Particulars: literature value; ref [8b]; cited from earlier work. The source holds these as a separate data set.
On the set-up of data set [9]: method as in PMID 36763965. Particulars: literature value; ref [8b]; cited from earlier work. The source holds these as a separate data set.

In brackets after ≈: the same amount, converted by molar mass. Where two headings read alike, the source gives them in different places.

In data set [1], `COC(=O)C12C3C4C1C1C2C3C41C(=O)O` (stereo not drawn) [S1] displayed a solubility of 149 mM (≈ 30.7 mg/mL). Besides, the logP in [2] is 0.02 ± 0.01. The same compound gave a pKa in [3] of 3.96 ± 0.01.

`COC(=O)C12C3C4C5C1C2C3C45C(=O)O` (stereo not drawn) [compound 14] gave a solubility in data set [1] of 210 mM (≈ 43.3 mg/mL). This compound also gave a logP in data set [2] of 0.72 ± 0.01. This compound also registered a pKa in data set [3] of 3.99 ± 0.02.

With `C[C@@H]1CN(c2ccc(NC(=O)C34C5C6C3C3C4C3(c3ccc(OC(F)(F)F)cc3)C65)cn2)C[C@H](C)O1` (stereo partly drawn) [compound 19], the microsomal CLint at 1 µM in data set [4] stood at 61 µL/min/mg; in data set [5], 76 µL/min/mg. For the same compound, the half-life at 1 µM in [4] (read-out: mouse liver microsome stability t1/2) is 23 min; in data set [5] (read-out: human liver microsome stability t1/2) it was 19 min. Moreover, in [1], the aqueous solubility entry is listed as “too low to be measured”. Further, in data set [2], the logP was 4.74 ± 0.23.

In [1], `COC(=O)c1ccc(C(=O)O)cc1` [compound 20, 4-(methoxycarbonyl)benzoic acid] gave a solubility of 1.38 mM (≈ 0.249 mg/mL). Moreover, the logP in data set [2] came out at 2.02 ± 0.02. The compound also displayed a pKa in data set [3] of 3.84 ± 0.01.

Turning to `Cc1c(C(=O)Nc2ccc(N3C[C@@H](C)O[C@@H](C)C3)nc2)cccc1-c1ccc(OC(F)(F)F)cc1` [sonidegib], in [6], the “mouse liver microsome stability Clint” value is 26 µL/min/mg and the “mouse liver microsome stability t1/2” value was 53 min. Moreover, in data set [7], the logP is 4.26 (ref ([32])). Further, the aqueous solubility in [8] was <1.6 × 10^–3 (ref [8b]) mM. In addition, in data set [9], the “human liver microsome stability Clint” value is 20 µL/min/mg and the “human liver microsome stability t1/2” value is listed as 70 min.

Broadly, the solubility is the dissolved amount per volume that the medium holds. Higher therefore signals a readily soluble substance. The logP is the decadic logarithm of the partition coefficient of the neutral form, usually between octanol and water. A word on the pKa: it is the pH at which an ionisable group is half protonated. A higher pKa goes with a group that holds its proton tightly. The microsomal CLint is a measure of how fast metabolising enzymes remove a compound, apart from limits set by blood flow.
